PMC12692169, “Identification of Novel TAT-I24-Related Peptides with Antiviral Activities” (International Journal of Molecular Sciences, 2025)
Residues, ends and D or L forms follow the SMILES beside them.

Key:
Baculovirus/HEK293 = settings: 24 h
[1] = system: mouse cytomegalovirus (MCMV)/NIH/3T3 cells; settings: 72 h
red blood cells (RBC) = test: RBC swelling (enlarged pellet after centrifugation); settings: 1 h; for RBC swelling: peptides diluted in PBS (absence of serum), up to 20 µM, pellet size after centrifugation; for RBC swelling in the presence of serum: peptides diluted in 10% human/donor serum

SMILES	IC50 (Baculovirus/HEK293)	IC50 [1]	RBC swelling (red blood cells (RBC))	RBC swelling in the presence of serum (red blood cells (RBC))
CC(C)[C@H](NC(=O)[C@H](CO)NC(=O)[C@H](CCC(N)=O)NC(=O)[C@@H]1CCCN1C(=O)[C@@H]1CCCN1C(=O)[C@H](CCCNC(=N)N)NC(=O)[C@H](CCCNC(=N)N)NC(=O)[C@H](CCCNC(=N)N)NC(=O)[C@H](CCC(N)=O)NC(=O)[C@H](CCCNC(=N)N)NC(=O)[C@H](CCCNC(=N)N)NC(=O)[C@H](CCCCN)NC(=O)[C@H](CCCCN)NC(=O)[C@H](CCCNC(=N)N)NC(=O)CN)C(=O)N[C@@H](Cc1ccccc1)C(=O)N[C@@H](Cc1ccc(O)cc1)C(=O)N[C@@H](C)C(=O)N[C@@H](CS)C(=O)N[C@@H](Cc1ccccc1)C(=O)N[C@@H](C)C(=O)N[C@@H](CS)C(=O)O [TAT-De1] (H-GRKKRRQRRRPPQSVFYACFAC-OH)	37 nM	1610 nM	less effect on RBC swelling	
CC(C)C[C@H](NC(=O)[C@H](CS)NC(=O)[C@H](CCC(N)=O)NC(=O)[C@@H]1CCCN1C(=O)[C@@H]1CCCN1C(=O)[C@H](CCCNC(=N)N)NC(=O)[C@H](CCCNC(=N)N)NC(=O)[C@H](CCCNC(=N)N)NC(=O)[C@H](CCC(N)=O)NC(=O)[C@H](CCCNC(=N)N)NC(=O)[C@H](CCCNC(=N)N)NC(=O)[C@H](CCCCN)NC(=O)[C@H](CCCCN)NC(=O)[C@H](CCCNC(=N)N)NC(=O)CN)C(=O)N[C@@H](C)C(=O)N[C@@H](Cc1ccccc1)C(=O)N[C@@H](Cc1ccc(O)cc1)C(=O)N[C@@H](C)C(=O)N[C@@H](CS)C(=O)N[C@@H](Cc1ccccc1)C(=O)N[C@@H](CS)C(=O)O [TAT-I24] (H-GRKKRRQRRRPPQCLAFYACFC-OH)	16 nM	809 nM	caused RBC swelling at higher concentrations	not in the presence of donor serum
CC[C@H](C)[C@H](NC(=O)[C@H](C)NC(=O)[C@H](CC(C)C)NC(=O)[C@H](CS)NC(=O)[C@H](CCC(N)=O)NC(=O)[C@@H]1CCCN1C(=O)[C@@H]1CCCN1C(=O)[C@H](CCCNC(=N)N)NC(=O)[C@H](CCCNC(=N)N)NC(=O)[C@H](CCCNC(=N)N)NC(=O)[C@H](CCC(N)=O)NC(=O)[C@H](CCCNC(=N)N)NC(=O)[C@H](CCCNC(=N)N)NC(=O)[C@H](CCCCN)NC(=O)[C@H](CCCCN)NC(=O)[C@H](CCCNC(=N)N)NC(=O)CN)C(=O)N[C@@H](Cc1ccc(O)cc1)C(=O)N[C@@H](CC(=O)O)C(=O)N[C@@H](CS)C(=O)N[C@@H](Cc1ccccc1)C(=O)N[C@@H](CS)C(=O)O [TAT-M13] (H-GRKKRRQRRRPPQCLAIYDCFC-OH)	31 nM	1220 nM	caused RBC swelling at higher concentrations	
CC(C)C[C@H](NC(=O)[C@H](CS)NC(=O)[C@H](CCC(N)=O)NC(=O)[C@@H]1CCCN1C(=O)[C@@H]1CCCN1C(=O)[C@H](CCCNC(=N)N)NC(=O)[C@H](CCCNC(=N)N)NC(=O)[C@H](CCCNC(=N)N)NC(=O)[C@H](CCC(N)=O)NC(=O)[C@H](CCCNC(=N)N)NC(=O)[C@H](CCCNC(=N)N)NC(=O)[C@H](CCCCN)NC(=O)[C@H](CCCCN)NC(=O)[C@H](CCCNC(=N)N)NC(=O)CN)C(=O)N[C@@H](C)C(=O)N[C@H](C(=O)N[C@@H](Cc1ccc(O)cc1)C(=O)N[C@@H](CC(=O)O)C(=O)N[C@@H](CS)C(=O)N[C@@H](Cc1ccccc1)C(=O)N[C@H](C(=O)O)C(C)C)C(C)C [TAT-M17] (H-GRKKRRQRRRPPQCLAVYDCFV-OH; N-terminus and C-terminus assumed)	102 nM	5850 nM	did not cause RBC swelling in the absence of serum even at 20 µM	
CC(C)C[C@H](NC(=O)[C@H](CS)NC(=O)[C@H](CCC(N)=O)NC(=O)[C@@H]1CCCN1C(=O)[C@@H]1CCCN1C(=O)[C@H](CCCNC(=N)N)NC(=O)[C@H](CCCNC(=N)N)NC(=O)[C@H](CCCNC(=N)N)NC(=O)[C@H](CCC(N)=O)NC(=O)[C@H](CCCNC(=N)N)NC(=O)[C@H](CCCNC(=N)N)NC(=O)[C@H](CCCCN)NC(=O)[C@H](CCCCN)NC(=O)[C@H](CCCNC(=N)N)NC(=O)CN)C(=O)N[C@@H](C)C(=O)N[C@H](C(=O)N[C@@H](Cc1c[nH]cn1)C(=O)N[C@@H](CC(=O)O)C(=O)N[C@@H](CS)C(=O)N[C@@H](Cc1ccccc1)C(=O)N[C@H](C(=O)O)C(C)C)C(C)C [TAT-M22] (H-GRKKRRQRRRPPQCLAVHDCFV-OH; N-terminus and C-terminus assumed)	245 nM	11800 nM	did not cause RBC swelling in the absence of serum even at 20 µM	
CC(C)C[C@H](NC(=O)[C@H](CS)NC(=O)[C@H](C)NC(=O)[C@H](Cc1ccc(O)cc1)NC(=O)[C@H](Cc1ccccc1)NC(=O)[C@H](C)NC(=O)[C@H](CC(C)C)NC(=O)[C@H](CCC(N)=O)NC(=O)[C@@H]1CCCN1C(=O)[C@@H]1CCCN1C(=O)[C@H](CCCNC(=N)N)NC(=O)[C@H](CCCNC(=N)N)NC(=O)[C@H](CCCNC(=N)N)NC(=O)[C@H](CCC(N)=O)NC(=O)[C@H](CCCNC(=N)N)NC(=O)[C@H](CCCNC(=N)N)NC(=O)[C@H](CCCCN)NC(=O)[C@H](CCCCN)NC(=O)[C@H](CCCNC(=N)N)NC(=O)CN)C(=O)N[C@@H](C)C(=O)N[C@@H](Cc1ccccc1)C(=O)O [TAT-M40] (H-GRKKRRQRRRPPQLAFYACLAF-OH)	21 nM	1850 nM	caused RBC swelling at higher concentrations	
CC(C)C[C@H](NC(=O)[C@H](CS)NC(=O)[C@H](C)NC(=O)[C@H](Cc1ccc(O)cc1)NC(=O)[C@H](Cc1ccccc1)NC(=O)[C@H](C)NC(=O)[C@H](CC(C)C)NC(=O)[C@H](CS)NC(=O)[C@@H]1CCCN1C(=O)[C@H](CCCNC(=N)N)NC(=O)[C@H](CCCNC(=N)N)NC(=O)[C@H](CCCNC(=N)N)NC(=O)[C@H](CCC(N)=O)NC(=O)[C@H](CCCNC(=N)N)NC(=O)[C@H](CCCNC(=N)N)NC(=O)[C@H](CCCCN)NC(=O)[C@H](CCCCN)NC(=O)[C@H](CCCNC(=N)N)NC(=O)CN)C(=O)N[C@@H](C)C(=O)N[C@@H](Cc1ccccc1)C(=O)N[C@@H](Cc1ccc(O)cc1)C(=O)N[C@@H](C)C(=O)N[C@@H](CS)C(=O)O [TAT-M212] (H-GRKKRRQRRRPCLAFYACLAFYAC-OH)	619 nM	18200 nM	caused RBC swelling over a broad concentration range comparable to TAT-M214	
CC(C)C[C@H](NC(=O)[C@H](CO)NC(=O)[C@H](C)NC(=O)[C@H](Cc1ccc(O)cc1)NC(=O)[C@H](Cc1ccccc1)NC(=O)[C@H](C)NC(=O)[C@H](CC(C)C)NC(=O)[C@H](CCC(N)=O)NC(=O)[C@@H]1CCCN1C(=O)[C@@H]1CCCN1C(=O)[C@H](CCCNC(=N)N)NC(=O)[C@H](CCCNC(=N)N)NC(=O)[C@H](CCCNC(=N)N)NC(=O)[C@H](CCC(N)=O)NC(=O)[C@H](CCCNC(=N)N)NC(=O)[C@H](CCCNC(=N)N)NC(=O)[C@H](CCCCN)NC(=O)[C@H](CCCCN)NC(=O)[C@H](CCCNC(=N)N)NC(=O)CN)C(=O)N[C@@H](C)C(=O)N[C@@H](Cc1ccccc1)C(=O)O [TAT-M219] (H-GRKKRRQRRRPPQLAFYASLAF-OH)	96 nM	7380 nM	did not cause RBC swelling in the absence of serum even at 20 µM	
CC(C)C[C@H](NC(=O)[C@H](Cc1ccccc1)NC(=O)[C@H](CS)NC(=O)[C@H](Cc1ccccc1)NC(=O)[C@@H]1CCCN1C(=O)[C@H](CO)NC(=O)[C@H](CCC(N)=O)NC(=O)[C@@H]1CCCN1C(=O)[C@@H]1CCCN1C(=O)[C@H](CCCNC(=N)N)NC(=O)[C@H](CCCNC(=N)N)NC(=O)[C@H](CCCNC(=N)N)NC(=O)[C@H](CCC(N)=O)NC(=O)[C@H](CCCNC(=N)N)NC(=O)[C@H](CCCNC(=N)N)NC(=O)[C@H](CCCCN)NC(=O)[C@H](CCCCN)NC(=O)[C@H](CCCNC(=N)N)NC(=O)CN)C(=O)N[C@@H](C)C(=O)N[C@@H](Cc1ccccc1)C(=O)N[C@@H](CS)C(=O)N[C@@H](Cc1ccccc1)C(=O)O [TAT-T7] (H-GRKKRRQRRRPPQSPFCFLAFCF-OH; N-terminus and C-terminus assumed)	17 nM	1130 nM	caused RBC swelling at higher concentrations	not in the presence of donor serum
